Measurements from US8686048B2, “Immunomodulator and anti-inflammatory compounds” (Rhizen Pharmaceuticals SA, priority 2010, dated 2014).

Tests used:
IL-17 = test: Inhibition of IL-17 release from mouse splenocytes (PMA + ionomycin, ELISA); type: cell-based, Balb/c mice; conditions: Splenocyte, 10 μM, 3 h
Experimental: 2. Inhibition of IL-17 Release from Mouse Splenocytes:
Splenocytes isolated from Balb/c mice were re-suspended in RPMI medium at a concentration of 1×10^6 cells/ml and seeded in a 6 well plate. Cells were incubated with desired concentrations of the inhibitor for 15 min prior to induction with 10 ng/ml PMA+1 μM ionomycin. After a 3 h incubation, supernatant was collected and analyzed for IL-17 concentration using an ELISA kit. Data were analyzed using GraphPad Prism. IC50 values for each compound were determined based on the percent inhibition due to the test compound compared to the control.

h-DHODH = biological target: T1, h-DHODH (Homo sapiens, UniProt Q02127); test: Dihydro-orotate dehydrogenase inhibition assay (U937 membrane preparations, DCIP reduction); type: biochemical; conditions: U937 membrane preparation
T1 construct: endogenous in cells; host or cells: U937 cells (membrane fraction, solubilised with 1% octyl glucoside)
T1 sequence (Q02127 whole entry): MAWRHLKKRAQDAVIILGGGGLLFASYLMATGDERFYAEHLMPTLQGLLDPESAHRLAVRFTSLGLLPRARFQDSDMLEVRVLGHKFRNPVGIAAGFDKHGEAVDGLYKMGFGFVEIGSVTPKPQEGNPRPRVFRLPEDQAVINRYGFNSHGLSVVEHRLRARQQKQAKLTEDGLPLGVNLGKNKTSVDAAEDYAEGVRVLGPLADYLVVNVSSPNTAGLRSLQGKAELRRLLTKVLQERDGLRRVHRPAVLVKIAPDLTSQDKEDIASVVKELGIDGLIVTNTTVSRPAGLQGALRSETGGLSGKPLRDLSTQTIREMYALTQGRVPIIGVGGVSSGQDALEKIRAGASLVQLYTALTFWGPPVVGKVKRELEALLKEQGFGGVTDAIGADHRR
Experimental: Dihydro-Orotate Dehydrogenase Inhibition Assay
Dihydro-orotate dehydrogenase (DHODH) catalyzes the […] of dihydro-orotate to orotate during de novo biosynthesis of pyrimidines Inhibition of DHODH activity in U937 membrane preparations was measured by the dihydro-orotate driven reduction of 2,6 dichloroindophenol (DCIP).
U937 cells were homogenized in 20 mM Tris/HCl (pH 7.2) containing 1 mM EDTA. […] Following washes, the pellet was dissolved in 20 mM Tris/HCl containing 150 mM NaCl, 1 mM EDTA, and 1% octyl glucoside on ice for 1 h. Particulate matter was removed by centrifugation at 100000×g for 1 h at 4° C. […] The mixture was incubated at 37° C. for 4 h before measuring the change in absorbance on a plate reader (BMG Labtech., Germany) at 600 nm. Data were analyzed using GraphPad Prism. IC50 for each compound was determined based on the percent inhibition of dihydro-orotate […].

| SMILES | inhibition at 10 µM (IL-17) [%] | inhibition at 1 µM (h-DHODH) [%] | IC50 (h-DHODH) [nM] | melting point [°C] | h-DHODH % inhibition 1 uM (h-DHODH) [%] | inhibition at 0.3 µM (h-DHODH; compound tested at 0.3 uM (footnote *)) [%] | inhibition at 10 µM (h-DHODH; compound tested at 10 uM) [%] |
| --- | --- | --- | --- | --- | --- | --- | --- |
| COc1cccc(-c2cc(F)c(NC(=O)c3ccccc3C(=O)O)c(F)c2)c1 [Example 1, 2-(3,5-Difluoro-3′-methoxybiphenyl-4-ylcarbamoyl)benzoic acid] | 6.13 | 53.3 | 741 | 168 to 173 | – | – | – |
| COc1cccc(-c2cc(F)c(NC(=O)c3ccccc3S(=O)(=O)O)c(F)c2)c1 [Example 2, 2-(3,5-Difluoro-3′-methoxybiphenyl-4-ylcarbamoyl)benzenesulfonic acid] | 29.2 | 12.2 | – | 97 to 102 | – | – | – |
| COc1cccc(-c2ccc(NC(=O)c3ccccc3C(=O)O)cn2)c1 [Example 3, 2-(6-(3-Methoxyphenyl)pyridin-3-ylcarbamoyl)benzoic acid] | 17.1 | 14.3 | – | 194 to 199 | – | – | – |
| CCOc1cccc(-c2ccc(NC(=O)c3ccccc3C(=O)O)c(F)c2)c1 [Example 4, 2-(3′-Ethoxy-3-fluorobiphenyl-4-ylcarbamoyl)benzoic acid] | 11.2 | 43 | – | 151 to 157 | – | – | – |
| COc1cccc(-c2cc(F)c(NC(=O)c3nccnc3C(=O)O)c(F)c2)c1 [Example 6, 3-(3,5-Difluoro-3′-methoxybiphenyl-4-ylcarbamoyl)pyrazine-2-carboxylic acid] | 9.52 | 2.26 | – | 180.1 to 183.4 | – | – | – |
| CCOc1cccc(-c2cc(F)c(NC(=O)c3nccnc3C(=O)O)c(F)c2)c1 [Example 7, 3-(3,5-Difluoro-3′-ethoxybiphenyl-4-ylcarbamoyl)pyrazine-2-carboxylic acid] | 8.58 | 4.53 | – | 133.4 to 137.3 | – | – | – |
| O=C(O)c1ccccc1C(=O)Nc1c(F)cc(-c2ccccc2Cl)cc1F [Example 8, 2-(2′-Chloro-3,5-difluorobiphenyl-4-ylcarbamoyl)benzoic acid] | 35.4 | 85.8 | 90 | 143.5 to 145.1 | – | – | – |
| O=C(O)c1nccnc1C(=O)Nc1c(F)cc(-c2cccc(OCc3ccccc3)c2)cc1F [Example 9, 3-[3′-(Benzyloxy)-3,5-difluorobiphenyl-4-ylcarbamoyl]pyrazine-2-carboxylic acid] | 26.9 | 10.3 | – | 142 to 144.5 | – | – | – |
| O=C(O)c1ccccc1C(=O)Nc1c(F)cc(-c2ccccc2)cc1F [Example 10, 2-(3,5-Difluorobiphenyl-4-ylcarbamoyl)benzoic acid] | 6.82 | 46.8 | – | 161.2 to 165.7 | – | – | – |
| CCOc1cccc(-c2cc(F)c(NC(=O)c3nccnc3C(=O)O)c(Cl)c2)c1 [Example 11, 3-(3-Chloro-3′-ethoxy-5-fluorobiphenyl-4-ylcarbamoyl)pyrazine-2-carboxylic acid] | 2.62 | – | – | 148 to 153 | – | – | – |
| O=C(O)c1ccccc1C(=O)Nc1c(F)cc(-c2cccc(OC(F)(F)F)c2)cc1F [Example 12, 2-[3,5-Difluoro-3′-(trifluoromethoxy)biphenyl-4-ylcarbamoyl]benzoic acid] | 2.96 | – | 205 | 148.2 to 151.4 | 64.47 | – | – |
| O=C(O)c1ccccc1C(=O)Nc1c(F)cc(-c2cccc(OCc3ccccc3)c2)cc1F [Example 13, 2-[3′-(Benzyloxy)-3,5-difluorobiphenyl-4-ylcarbamoyl]benzoic acid] | 3.43 | 76.4 | 150 | 140.3 to 143.4 | – | – | – |
| CCOc1cccc(-c2cc(F)c(NC(=O)c3cc(Cl)c(Cl)cc3C(=O)O)c(Cl)c2)c1 [Example 14, 4,5-Dichloro-2-(3-chloro-3′-ethoxy-5-fluorobiphenyl-4-ylcarbamoyl)benzoic acid] | 13.5 | 52.2 | – | 260 to 265 | – | – | – |
| CCOc1cccc(-c2cc(F)c(NC(=O)c3ccccc3C(=O)O)c(Cl)c2)c1 [Example 15, 2-(3-Chloro-3′-ethoxy-5-fluorobiphenyl-4-ylcarbamoyl)benzoic acid] | 57.5 | 75.5 | 129 | 135 to 140 | – | – | – |
| COc1cccc(-c2cc(F)c(NC(=O)c3cc(Cl)c(Cl)cc3C(=O)O)c(F)c2)c1 [Example 16, 4,5-Dichloro-2-(3,5-difluoro-3′-methoxybiphenyl-4-ylcarbamoyl)benzoic acid] | 12.3 | 28 | – | 158.6 to 162.2 | – | – | – |
| CCOc1cccc(-c2cc(F)c(NC(=O)c3cc(Cl)c(Cl)cc3C(=O)O)c(F)c2)c1 [Example 17, 4,5-Dichloro-2-(3′-ethoxy-3,5-difluorobiphenyl-4-ylcarbamoyl)benzoic acid] | 11.1 | 50.3 | – | 190.1 to 192.4 | – | – | – |

| SMILES | inhibition at 10 µM (IL-17) [%] | inhibition at 1 µM (h-DHODH) [%] | IC50 (h-DHODH) [nM] | melting point [°C] | h-DHODH % inhibition 1 uM (h-DHODH) [%] | inhibition at 0.3 µM (h-DHODH; compound tested at 0.3 uM (footnote *)) [%] | inhibition at 10 µM (h-DHODH; compound tested at 10 uM) [%] |
| --- | --- | --- | --- | --- | --- | --- | --- |
| COc1cccc(-c2cc(Cl)c(NC(=O)c3ccccc3C(=O)O)c(Cl)c2)c1 [Example 18, 2-(3,5-Dichloro-3′-methoxybiphenyl-4-ylcarbamoyl)benzoic acid] | 12.1 | 62.2 | 294 | 163 to 168 | – | – | – |
| O=C(O)c1ccccc1C(=O)Nc1c(Cl)cc(-c2ccccc2Cl)cc1Cl [Example 33, 2-(2′,3,5-Trichlorobiphenyl-4-ylcarbamoyl)benzoic acid] | 14 | – | – | 182 to 185 | – | – | – |
| COc1ccc(Cl)c(-c2ccc(NC(=O)c3ccccc3C(=O)O)cc2F)c1 [Example 79, 2-(2′-chloro-2-fluoro-5′-methoxybiphenyl-4-ylcarbamoyl)benzoic acid] | 24.6 | – | – | 185 to 187 | – | – | – |
| O=C(O)c1ccccc1C(=O)Nc1ccc(-c2ccccc2)cc1 [Example 85, 2-(biphenyl-4-ylcarbamoyl)benzoic acid] | 13 | – | – | – | – | 15.1 | – |
| CCSc1cccc(-c2c(F)cc(NC(=O)c3ccccc3C(=O)O)cc2F)c1 [Example 89, 2-[3′-(ethylthio)-2,6-difluorobiphenyl-4-ylcarbamoyl]benzoic acid] | 25.5 | – | – | 162 to 167 | – | – | – |
| CCCCOc1cccc(-c2c(F)c(F)c(NC(=O)c3ccccc3C(=O)O)c(F)c2F)c1 [Example 91, 2-(3′-butoxy-2,3,5,6-tetrafluorobiphenyl-4-ylcarbamoyl)benzoic acid] | – | 42.4 | – | 215.5 to 218.5 | – | – | – |
| CCCCOc1cccc(-c2ccc(NC(=O)c3ccccc3C(=O)O)c(F)c2)c1 [Example 92, 2-(3′-butoxy-3-fluorobiphenyl-4-ylcarbamoyl)benzoic acid] | – | 9.65 | – | 102 to 105 | – | – | – |
| O=C(O)c1ccccc1C(=O)Nc1c(F)cc(-c2cccc(OC(F)(F)F)c2)cc1F [Example 93, 2-[3,5-difluoro-3′-(trifluoromethoxy)biphenyl-4-ylcarbamoyl]benzoic acid] | – | – | – | 158 to 160 | 10.46 | – | – |
| O=C(O)c1ccccc1C(=O)Nc1ccc(-c2cccc(OC3CC3)c2)cc1F [Example 94, 2-(3′-cyclopropoxy-3-fluorobiphenyl-4-ylcarbamoyl)benzoic acid] | – | 13.9 | – | 134.5 to 137.5 | – | – | – |
| O=C(O)c1ccccc1C(=O)Nc1ccc(-c2cccc(OC3CC3)c2)cc1 [Example 95, 2-(3′-cyclopropoxybiphenyl-4-ylcarbamoyl)benzoic acid] | – | 1.49 | – | 150.2 to 154.3 | – | – | – |
| CCCCOc1cccc(-c2ccc(NC(=O)c3ccccc3C(=O)O)cc2)c1 [Example 96, 2-(3′-butoxybiphenyl-4-ylcarbamoyl)benzoic acid] | – | – | – | 155 to 157 | – | – | – |
| CCCCOc1cccc(-c2ccc(NC(=O)c3ccccc3C(=O)O)cc2F)c1 [Example 97, 2-(3′-butoxy-2-fluorobiphenyl-4-ylcarbamoyl)benzoic acid] | – | – | – | 164 to 167 | – | – | – |
| CCCCOc1cccc(-c2c(F)cc(NC(=O)c3ccccc3C(=O)O)cc2F)c1 [Example 98, 2-(3′-Butoxy-2,6-difluorobiphenyl-4-ylcarbamoyl)benzoic acid] | – | 31 | – | 181.1 to 184.2 | – | – | – |
| CCCc1c[nH]c2ccc(-c3cc(F)c(NC(=O)c4ccccc4C(=O)O)c(F)c3)cc12 [Example 99, 2-[2,6-Difluoro-4-(3-propyl-1H-indol-5-yl)phenylcarbamoyl]benzoic acid] | – | 42.6 | – | 76 to 80 | – | – | – |
| CCc1c[nH]c2ccc(-c3cc(F)c(NC(=O)c4ccccc4C(=O)O)c(Cl)c3)cc12 [Example 100, 2-[2-Chloro-4-(3-ethyl-1H-indol-5-yl)-6-fluorophenylcarbamoyl]benzoic acid] | – | 58.7 | – | 98 to 102 | – | – | – |
| C/C(O)=C(\C#N)C(=O)Nc1ccc(C(F)(F)F)cc1 [Teriflunomide, reference compound] | 0 | – | – | – | – | – | 77.2 |
